Reference: patent US11766468B2, “Method of treating prostate cancer with GnRH antagonist” (priority 2012, dated 2023)
Several values for one entry are separate records, joined by “and”; a condition that tells them apart may be missing. Equal entries are not always repeated. Marks after values point to notes of the source that are not given here. Square brackets hold non-standard residues; d marks the D form. Peptide text beside a SMILES is read from it. * marks the point of attachment. dPhe(4-NHCONH2) = NC(=O)Nc1ccc(C[C@@H](N)C(=O)O)cc1; Dihydroorotyl(S) = O=C1C[C@@H](C(=O)*)NC(=O)N1; dPhe(4-Cl) = N[C@H](Cc1ccc(Cl)cc1)C(=O)O; Phe(4-NH2) = Nc1ccc(C[C@H](N)C(=O)O)cc1; d2Nal = N[C@H](Cc1ccc2ccccc2c1)C(=O)O; Lys(iPr) = CC(C)NCCCC[C@H](N)C(=O)O; d3Pal = N[C@H](Cc1cccnc1)C(=O)O

Assay: CS21 safety: treatment-emergent adverse events (MedDRA SOC/PT), crude incidence, also by subgroup
Assay type: in vivo
Description: The safety variables for this study were assessed on the following: the frequency and severity of adverse events (AEs); the presence of clinically significant changes in laboratory parameters (clinical chemistry, hematology and urinalysis); changes in electrocardiograms (ECGs) and vital signs; changes detected by physical examination; and body weight.
An AE was therefore any unfavorable or unintended sign (including an abnormal laboratory finding), symptom or disease temporally associated with the use of the product, whether or not related to the IMP.
An adverse drug reaction (ADR) was defined as an AE evaluated by the investigator as being probably or possibly related to treatment with the IMP.
AEs were graded according to the National Cancer Institute (NCI) Common Terminology Criteria for Adverse Events (CTCAE). In accordance with the CTCAE criteria, AEs were rated on a five-point scale corresponding to mild, moderate, severe, life-threatening or disabling and death. For those AEs not described in the CTCAE, a separate five-point rating scale was used for rating of the intensity of AEs as follows below:
Safety parameters were evaluated for all patients included in the ITT analysis set, comprising all 610 randomized patients who received at least one dose of study medication. All safety tables include four columns: the three treatment groups described separately, and the pooled degarelix group.
Adverse events were regarded as ‘treatment-emergent’ if they occurred in the time interval from initial dosing to end-of-study. Adverse events were considered ‘pre-treatment’ if they occurred between screening and the initial injections of IMP. As described above, all AEs were classified according to MedDRA (version 10.0) system organ class (SOC), sorted alphabetically, and by preferred term (PT), in decreasing frequency of occurrence. Treatment-emergent AEs were expressed in terms of intensity (using NCI CTCAE) and relationship to study drug.
Using the results from the summary of clinical efficacy (SCE) and summary of clinical safety (SCS) findings, different patient subgroups were analyzed. Subgroup distinguishers included race (white, black, and other), age (<65 years, […], and >75 years), weight (<70 kg, ≥70−<90 kg, and ≥90 kg), body mass index (BMI) (≤20, >20 to 30, and >30 kg/m^2)), region (North-America, Western Europe, Central and Eastern Europe and Other), and stage of prostate cancer (e.g., localized, locally advanced, and metastatic).

[1] = degarelix 240/160 mg, listed as degarelix
[2] = degarelix Total (pooled), leuprolide 7.5 mg
[3] = degarelix Total (pooled), leuprolide 7.5 mg, listed as degarelix
[4] = degarelix pooled, LUPRON DEPOT 7.5 mg
[5] = degarelix pooled, LUPRON DEPOT 7.5 mg, listed as degarelix
[6] = pooled degarelix, leuprolide 7.5 mg

## CC(=O)N[C@H](Cc1ccc2ccccc2c1)C(=O)N[C@H](Cc1ccc(Cl)cc1)C(=O)N[C@H](Cc1cccnc1)C(=O)N[C@@H](CO)C(=O)N[C@@H](Cc1ccc(NC(=O)[C@@H]2CC(=O)NC(=O)N2)cc1)C(=O)N[C@H](Cc1ccc(NC(N)=O)cc1)C(=O)N[C@@H](CC(C)C)C(=O)N[C@@H](CCCCNC(C)C)C(=O)N1CCC[C@H]1C(=O)N[C@H](C)C(N)=O [Degarelix, D-Alaninamide, N-acetyl-3-(2-naphthalenyl)-D-alanyl-4-chloro-D-phenylalanyl-3-(3-pyridinyl)-D-alanyl-L-seryl-4-[[[(4S)-hexahydro-2,6-dioxo-4-pyrimidinyl]carbonyl]amino]-L phenylalanyl-4-[(aminocarbonyl)amino]-D-phenylalanyl-L leucyl-N6-(1-methylethyl)-L-lysyl-L-prolyl] (Ac-[d2Nal][dPhe(4-Cl)][d3Pal]S[Phe(4-NH2)](Dihydroorotyl(S))[dPhe(4-NHCONH2)]L[Lys(iPr)]P[dA]-NH2)
Degarelix 240/160 mg
  AEs leading to discontinuation, % of patients: 9%
  AEs leading to discontinuation, E events: 19
  AEs leading to discontinuation, N patients: 19
  Alanine aminotransferase increased, % of patients: ( 8%)
  All AEs, E = number of adverse events: 941
  All AEs, N = number of patients: 167
  Arthralgia, % of patients: ( 3%)
  Aspartate aminotransferase increased, % of patients: ( 5%)
  Back pain, % of patients: ( 6%)
  Blood & lymphatic system disorders, % of patients: ( 5%)
  Cardiac disorders, % of patients: ( 9%)
  Chills, % of patients: ( 3%)
  Constipation, % of patients: ( 3%)
  Deaths (Grade 5), % of patients: 2%
  Deaths (Grade 5), E events: 6
  Deaths (Grade 5), N patients: 5
  Ear & labyrinth disorders, % of patients: ( 1%)
  Endocrine disorders, % of patients: (<1%)
  Eye disorders, % of patients: ( 2%)
  Fatigue, % of patients: ( 6%)
  Gastrointestinal disorders, % of patients: (16%)
  General disorders & administration site conditions, % of patients: (50%)
  Hepatobiliary disorders, % of patients: (<1%)
  Hot flush, % of patients: (26%)
  Hypercholesterolaemia, % of patients: ( 6%)
  Hypertension, % of patients: ( 7%)
  Immune system disorders, % of patients: (<1%)
  Infections & infestations, % of patients: (19%)
  Injection site erythema, % of patients: (24%)
  Injection site induration, % of patients: ( 5%)
  Injection site nodule, % of patients: ( 6%)
  Injection site pain, % of patients: (30%)
  Injection site swelling, % of patients: ( 7%)
  Injury, poisoning & procedural complications, % of patients: ( 5%)
  Investigations, % of patients: (29%)
  Metabolism & nutrition disorders, % of patients: (13%)
  Musculoskeletal & connective tissue disorders, % of patients: (18%)
  Nausea, % of patients: ( 5%)
  Neoplasms benign, malignant & unspecified, % of patients: ( 6%)
  Nervous system disorders, % of patients: (13%)
  Psychiatric disorders, % of patients: ( 8%)
  Renal & urinary disorders, % of patients: (13%)
  Reproductive system & breast disorders, % of patients: ( 6%)
  Respiratory, thoracic & mediastinal disorders, % of patients: ( 8%)
  Serious AEs, % of patients: 12%
  Serious AEs, E events: 41
  Serious AEs, N patients: 24
  Skin & subcutaneous tissue disorders, % of patients: (10%)
  Surgical & medical procedures, % of patients: (<1%)
  Urinary tract infection, % of patients: ( 1%)
  Vascular disorders, % of patients: (32%)
  Weight increased, % of patients: (11%)
[1]
  Hot flush, % of patients: 26%
  Treatment-emergent adverse events (all AEs), % of patients: 83%
Degarelix Total (pooled)
  Injection site erythema, % of patients: (21%)
  Injection site induration, % of patients: ( 5%)
  Injection site nodule, % of patients: ( 5%)
  Injection site swelling, % of patients: ( 7%)
  Surgical & medical procedures, % of patients: (<1%)
[2]
  ADRs, % of patients: 58%
  ADRs, E events: 922
  ADRs, N patients: 238
  AEs leading to discontinuation, % of patients: 8%
  AEs leading to discontinuation, E events: 34
  AEs leading to discontinuation, N patients: 34
  Alanine aminotransferase increased, % of patients: ( 9%)
  All AEs, E = number of adverse events: 1878
  All AEs, N = number of patients: 330
  Aspartate aminotransferase increased, % of patients: ( 5%)
  Back pain, % of patients: ( 6%)
  Cardiac disorders, % of patients: ( 9%)
  Chills, % of patients: ( 4%)
  Constipation, % of patients: ( 4%)
  Deaths (Grade 5), % of patients: 2%
  Deaths (Grade 5), E events: 11
  Deaths (Grade 5), N patients: 10
  Ear & labyrinth disorders, % of patients: ( 2%)
  Endocrine disorders, % of patients: ( 1%)
  Eye disorders, % of patients: ( 2%)
  Fatigue, % of patients: ( 5%)
  Gastrointestinal disorders, % of patients: (17%)
  General disorders & administration site conditions, % of patients: (47%)
  Hepatobiliary disorders, % of patients: (<1%)
  Hot flush, % of patients: (26%)
  Hypercholesterolaemia, % of patients: ( 5%)
  Hypertension, % of patients: ( 6%)
  Immune system disorders, % of patients: (<1%)
  Infections & infestations, % of patients: (20%)
  Injection site pain, % of patients: (29%)
  Injury, poisoning & procedural complications, % of patients: ( 5%)
  Metabolism & nutrition disorders, % of patients: (10%)
  Nausea, % of patients: ( 5%)
  Neoplasms benign, malignant & unspecified, % of patients: ( 5%)
  Nervous system disorders, % of patients: (12%)
  Psychiatric disorders, % of patients: ( 8%)
  Renal & urinary disorders, % of patients: (13%)
  Respiratory, thoracic & mediastinal disorders, % of patients: (10%)
  Serious AEs, % of patients: 11%
  Serious AEs, E events: 67
  Serious AEs, N patients: 45
  Skin & subcutaneous tissue disorders, % of patients: (10%)
  Vascular disorders, % of patients: (33%)
  Weight increased, % of patients: (10%)
[3]
  Arthralgia, % of patients: 4% and 4.2%
  Back pain, % of patients: 6%
  Cardiac disorders, % of patients: 9%
  Gastrointestinal disorders, % of patients: 17%
  General disorders & administration site conditions, % of patients: 47%
  Infections & infestations, % of patients: 20%
  Injection site pain, % of patients: 29%
  Investigations, % of patients: 27%
  Musculoskeletal & connective tissue disorders, % of patients: 17%
  Renal & urinary disorders, % of patients: 13%
  Reproductive system & breast disorders, % of patients: 5%
  Treatment-emergent adverse events (all AEs), % of patients: 81%
  Urinary tract infection, % of patients: 3%
  Vascular disorders, % of patients: 33%
Degarelix combined, LUPRON DEPOT 7.5 mg
  Myocardial Infarction (PT), % of patients: 0.5%
Degarelix pooled
  Deep vein thrombosis, N patients: 0
  Libido decreased, N patients: 0
[4]
  Cardiac murmur, % of patients: 0%
  Chest pain, % of patients: (<1%)*
  Cystitis noninfective, % of patients: 0%
  Deep vein thrombosis, % of patients: 0%
  Erectile dysfunction, % of patients: (1%)*
  Libido decreased, % of patients: 0%
  Musculoskeletal stiffness, % of patients: 0%
  Myocardial ischaemia, % of patients: (<1%)*
  Oedema peripheral, % of patients: (2%)*
  Urinary retention, % of patients: (1%)*
[5]
  Chest pain, % of patients: 0.5%
  Erectile dysfunction, % of patients: 1% and 1.5%
  Oedema peripheral, % of patients: 2%
  Urinary retention, % of patients: 1.2%
Degarelix s.c., 12 months
  discontinuations due to injection site adverse events: < 1%
In vivo
  immediate onset hypersensitivity reactions: no immediate onset hypersensitivity reactions
Pooled degarelix
  ADRs: general disorders and administration site conditions including injection-site reactions, % of patients: 42%
  Gynaecomastia, prostatitis or testicular atrophy (each), % of patients: 2%
  Hyperhidrosis, % of patients: < 1%
  Night sweats, % of patients: 1%
  Pelvic pain, % of patients: < 1%
  Sweating disorders, % of patients: approximately 1%
  Testicular pain, % of patients: < 1%
  incidence of all other injection site preferred terms: ≤ 0.5 per 100 injections
  incidence of injection site erythema: 1.9 per 100 injections
  incidence of injection site pain: 2.9 per 100 injections
  incidence of treatment-emergent injection site reactions: 4.4 per 100 injections
  injection site reactions which led to withdrawal, % of patients: 1.2%
  patients with SAEs that led to withdrawal, number: 17
[6]
  Hot flushes reported as ADR, % of patients: 25%
  SAEs: cardiac disorders, % of patients: 2%
  SAEs: renal and urinary disorders, % of patients: 2%
